According to patent EP3246445A1, “LIPOXIN A4 DELIVERY SYSTEM BY A POROUS ELECTROSPUN POLYMERIC MEMBRANE” (Universita' Degli Studi G. D Annunzio Chieti - Pescara, priority 2016, dated 2017):

Key:
[1] = Release of LXA4 from PEO/PDLLA membranes in PBS, RP-HPLC; format: physicochemical
Description: The release of LXA4 from the membrane was evaluated using phosphate-buffered saline solution (PBS) (pH 7.4, at 37°C). Pieces (3 cm x 2.5 cm, ∼33 mg, sample) of membranes, empty or LXA4-loaded, were placed in 100 mm dishes containing PBS (8 mL) and maintained at 37 °C, 5% CO2 and 95% humidity for 1, 3, 18, 48, 72 and 96 h. LXA4 release was assessed by HPLC analysis after solid phase extraction. Following incubation with PBS, membranes were diluted with 2 volumes of cold MeOH and stored at -80°C until extraction. All samples were extracted using C-18 cartridges (Bond Elut Varian, Agilent Technologies, Milan) as previously described (Romano M, Luciotti G, Gangemi S, Marinucci F, Prontera C, D'Urbano E, et al. Urinary excretion of lipoxin A(4) and related compounds: development of new extraction techniques for lipoxins. Laboratory investigation; a journal of technical methods and pathology. 2002;82(9):1253-4). Before extraction, PGB2 (50 ng/sample) was added to each sample as internal standard to calculate extraction recovery. Samples were then taken to dryness using a rotary evaporator, suspended in 10 mL of deionized (dd) H2O containing MeOH, acidified to pH 3.5 and rapidly loaded onto C-18 columns previously equilibrated with MeOH and (dd) H2O. After sample loading, columns were washed with (dd) H2O to restore a neutral pH. Samples were eluted with 7 mL of methyl formate and taken to dryness using a Speedvac apparatus. The dried samples were then suspended in MeOH (100 µl) and injected into an HPLC apparatus (Agilent 1100) equipped reverse phase-HPLC with a Hypersil C-18 column (300 mm x 4 mm x 5 µm, Waters) and a photodiode array detector (Waters) for online UV spectroscopy. LXA4 was identified by UV spectroscopy and considering the chromatographic retention time.
LXA4 releasing from the PEO/PDLLA membranes was investigated by incubating membranes with a PBS solution at pH 7.4 for varying times. LXA4 was quantitated by RP-HPLC. […] The maximum release was observed after 48 h (17%), followed by a progressive decrement at 72 h and 96 h (around 11%). Approximately 25% of LXA4 was recovered as trans isomer, in line with the content of Romano M, Serhan CN. Lipoxin generation by permeabilized human platelets. Biochemistry.

hPDLSCs = assay: Proliferation assay with LXA4 released from PEO/PDLLA membrane; format: cell-based, Human; settings: LXA4 eluted from PEO/PDLLA membranes in PBS
Description: Bioptic samples of periodontal ligament were obtained from volunteers aged 20-35 years, exempt from systemic or oral disease, after undesigning the informed consent deed. The study was approved by the Medical Ethic Committee of the "G. D'Annunzio" University, Chieti, Italy (n°266/17.04.14). The periodontal tissue obtained by bioptic samples, grinded and washed several times with PBS (Lonza, Basel, Switzerland) was cultured using TheraPEAK™MSCGM-CD™ BulletKit serum free (MSCGM-CD) medium for the growth of human mesamchimal steam cells (MSCGM-CD) (Lonza), to minimize the exposure to substances of non-human origin. Human periodontal ligament stem cells (hPDLSCs) were obtained and cultured as reported in Trubiani O, Piattelli A, Gatta V, Marchisio M, Diomede F, D'Aurora M, et al. Assessment of an efficient xeno-free culture system of human periodontal ligament stem cells. […]
For the proliferation assay with LXA4 released from PEO/PDLLA membrane, hPDLSCs (2 x 10^3 cells/well) were seeded in 96-well microplates with complete medium overnight at 37 °C and 5%CO2. […] Data were expressed as proliferation index, calculated as the ratio between values from cells exposed to membrane-eluted LXA4 and from cells exposed to vehicle only (ethanol) of LXA4. […]
The proliferation and migration of hPDLSC growth a direct contact with fragment of LXA4-loaded membrane were evaluated. […]

LXA4 released ([1]; PBS pH 7.4, 37 °C, 72 h): around 11% | LXA4 released ([1]; PBS pH 7.4, 37 °C, 96 h): around 11% | LXA4 released, maximum release ([1]; PBS pH 7.4, 37 °C, after 48 h): 17% | LXA4 released, of the total LXA4 added to membranes ([1]; PBS pH 7.4, 37 °C, within 3 h): approximately 15% | LXA4 recovered as trans isomer ([1]; of the total LXA4 eluted from the membranes): Approximately 25%
SMILES: CCCCC[C@H](O)/C=C/C=C\C=C\C=C\[C@@H](O)[C@@H](O)CCCC(=O)O [LXA4, Lipoxin A4]
biological activities on hPDLSCs after release (hPDLSCs): retained its biological activities on hPDLSCs
